# Measured values as given in PubChem BioAssay AID1259408 (Genetic Toxicology Data Bank (GENE-TOX), 2018).
# Active and inactive are the calls of the source. How the calls were made is not given here.
# System: GENE-TOX genotoxicity assays, various organisms and cells
# Assay: GENE-TOX mutagenicity studies
# Details: for call: Assay Type: In vivo carcinogenicity studies
# [1] = Species/Cell Type: Escherichia coli polA (W3119 vs P3478), Assay Type: Rec-assay, DNA effects (bacterial DNA repair), Assay Code: RE1-, Evaluation Type: Evaluation A (Pre-1980)
# [2] = Species/Cell Type: Human, Assay Type: Sister-chromatid exchange (SCE) in vitro, Assay Code: SC1+D, Dose Response: With dose response, Evaluation Type: Evaluation B (Post-1980)
# [3] = Species/Cell Type: Rodents, Sex: Male, Assay Type: Dominant lethal test, Assay Code: DLT+, Evaluation Type: Evaluation A (Pre-1980)
# [4] = Species/Cell Type: Salmonella typhimurium (one or more of the five standard strains: TA98, TA100, TA1535, TA1537, and TA1538), Assay Type: Histidine reverse gene mutation, Ames assay, Assay Code: SAL+*, Activation: With metabolic activation, Evaluation Type: Evaluation A (Pre-1980)
# [5] = Species/Cell Type: Nonhuman, Assay Code: CCG+, Evaluation Type: Evaluation A (Pre-1980)
# [6] = Species/Cell Type: Salmonella typhimurium (one or more of the five standard strains: TA98, TA100, TA1535, TA1537, and TA1538), Assay Type: Histidine reverse gene mutation, Ames assay, Assay Code: SAL+, Evaluation Type: Evaluation A (Pre-1980)
# [7] = Species/Cell Type: Salmonella typhimurium (one or more of the five standard strains: TA98, TA100, TA1535, TA1537, and TA1538), Assay Type: Histidine reverse gene mutation, Ames assay, Assay Code: SALT, Evaluation Type: Evaluation A (Pre-1980)
compound,measurement,setting,value
N=c1ccn(O)c2ccccc12,mutagenic call,[1],inactive; negative
same,mutagenic call,"Species/Cell Type: Nonhuman, Assay Type: Chromosome aberrations in vitro, Assay Code: CY&+D, Dose Response: With dose response, Evaluation Type: Evaluation A (Pre-1980)",active; positive
same,call,"Species/Cell Type: Nonhuman, Assay Code: CCGT, Evaluation Type: Evaluation A (Pre-1980)",no conclusion
same,mutagenic call,"Species/Cell Type: Nonhuman, Assay Type: Sister-chromatid exchange (SCE) in vitro, Assay Code: SC2+D, Dose Response: With dose response, Evaluation Type: Evaluation A (Pre-1980)",active; positive
COC/C=C(C)/C=C/C=C(C)/C=C/C1=C(C)CCCC1(C)C,mutagenic call,[2],active; positive
Cc1c2ccncc2c(C)c2c1[nH]c1ccccc12,mutagenic call,"Species/Cell Type: Chinese hamster ovary (CHO) cells, Assay Type: Forward gene mutation at the HPRT locus, Assay Code: CHO+, Evaluation Type: Evaluation B (Post-1980)",active; positive
same,mutagenic call,"Species/Cell Type: Nonhuman, Assay Type: Sister-chromatid exchange (SCE) in vitro, Assay Code: SC2+, Evaluation Type: Evaluation B (Post-1980)",active; positive
CCNC(=O)N(CC)N=O,mutagenic call,"Species/Cell Type: Zea mays (corn), Assay Type: Gene mutation, Assay Code: ZEM+D, Dose Response: With dose response, Evaluation Type: Evaluation A (Pre-1980)",active; positive
C1CN(P2(N3CC3)=NP(N3CC3)(N3CC3)=NP(N3CC3)(N3CC3)=N2)CCO1 (stereo not drawn),mutagenic call,"Species/Cell Type: Human lymphocytes or leukocytes, Assay Type: Chromosome aberrations in vitro, Assay Code: CY7+, Evaluation Type: Evaluation A (Pre-1980)",active; positive
same,mutagenic call,"Species/Cell Type: Human lymphocytes, Assay Type: Sister-chromatid exchange (SCE) in vitro, Assay Code: SCL+D, Dose Response: With dose response, Evaluation Type: Evaluation B (Post-1980)",active; positive
same,mutagenic call,[2],active; positive
same,mutagenic call,"Species/Cell Type: Nonhuman, Assay Type: Sister-chromatid exchange (SCE) in vitro, Assay Code: SC2+D, Dose Response: With dose response, Evaluation Type: Evaluation B (Post-1980)",active; positive
same,mutagenic call,[3],active; positive
CCNc1nc(NC(C)(C)C)nc(OC)n1,mutagenic call,"Species/Cell Type: Saccharomyces cerevisiae, Assay Type: Mitotic recombination or gene conversion, Assay Code: YEC-, Evaluation Type: Evaluation A (Pre-1980)",inactive; negative
NC(=O)c1ccccc1C(N)=O,call,"Species/Cell Type: Nonhuman, Assay Code: CCG-, Evaluation Type: Evaluation A (Pre-1980)",inactive; negative
O=C[C@H](O)[C@@H](O)[C@H](O)[C@H](S)CO,mutagenic call,"Species/Cell Type: Rodents, Sex: Male, Assay Type: Dominant lethal test, Assay Code: DLT-, Evaluation Type: Evaluation A (Pre-1980)",inactive; negative
O=C1CCc2ccc3c(ccc4ccccc43)c21,mutagenic call,[4],active; positive
CCC(=O)Nc1ccc(Cl)c(Cl)c1,mutagenic call,"Species/Cell Type: Aspergillus nidulans, Assay Type: Forward gene mutation, Assay Code: ASF-, Evaluation Type: Evaluation A (Pre-1980)",inactive; negative
same,mutagenic call,"Species/Cell Type: Bacillus subtilis (H17 vs M45), Assay Type: Rec-assay, spot test, DNA effects (bacterial DNA repair), Assay Code: REW+, Evaluation Type: Evaluation A (Pre-1980)",active; positive
same,mutagenic call,[1],inactive; negative
same,mutagenic call,"Species/Cell Type: Human diploid fibroblasts, Assay Type: Unscheduled DNA synthesis (UDS) in vitro, DNA effects, Assay Code: UDH-, Evaluation Type: Evaluation A (Pre-1980)",inactive; negative
same,mutagenic call,"Species/Cell Type: Saccharomyces cerevisiae, Assay Type: Mitotic recombination or gene conversion, Assay Code: YEH-, Evaluation Type: Evaluation A (Pre-1980)",inactive; negative
same,mutagenic call,"Species/Cell Type: Salmonella typhimurium (one or more of the five standard strains: TA98, TA100, TA1535, TA1537, and TA1538), Assay Type: Histidine reverse gene mutation, Ames assay, Assay Code: SAL-, Evaluation Type: Evaluation A (Pre-1980)",inactive; negative
O=C1OC(CN2CCOCC2)CN1/N=C/c1ccc([N+](=O)[O-])o1 (stereo not drawn),mutagenic call,"Species/Cell Type: Escherichia coli WP2, Assay Type: Tryptophan reverse gene mutation, Assay Code: WP2+, Evaluation Type: Evaluation A (Pre-1980)",active; positive
same,mutagenic call,"Species/Cell Type: Escherichia coli WP2 UVRA, Assay Type: Tryptophan reverse gene mutation, Assay Code: WPU+, Evaluation Type: Evaluation A (Pre-1980)",active; positive
same,mutagenic call,"Species/Cell Type: Escherichia coli WP2 UVRA, Assay Type: Tryptophan reverse gene mutation, Assay Code: WPU+D, Dose Response: With dose response, Evaluation Type: Evaluation A (Pre-1980)",active; positive
same,call,[5],active; positive
S=C1NCCN1,mutagenic call,"Species/Cell Type: Escherichia coli WP2, Assay Type: Tryptophan reverse gene mutation, Assay Code: WP2-, Evaluation Type: Evaluation A (Pre-1980)",inactive; negative
same,mutagenic call,"Species/Cell Type: Escherichia coli WP2 UVRA, Assay Type: Tryptophan reverse gene mutation, Assay Code: WPU-, Evaluation Type: Evaluation A (Pre-1980)",inactive; negative
same,mutagenic call,"Species/Cell Type: Mammalian polychromatic erythrocytes, Assay Type: Micronucleus test, chromosome aberrations, Assay Code: MNTT, Evaluation Type: Evaluation A (Pre-1980)",no conclusion
same,mutagenic call,"Species/Cell Type: Mouse, Sex: Male, Assay Type: Sperm morphology, Assay Code: SPI-, Evaluation Type: Evaluation A (Pre-1980)",inactive; negative
same,call,[5],active; positive
same,mutagenic call,"Species/Cell Type: Nonhuman, Assay Type: Sister-chromatid exchange (SCE) in vitro, Assay Code: SC2T, Evaluation Type: Evaluation B (Post-1980)",no conclusion
same,mutagenic call,[3],active; positive
same,mutagenic call,[6],active; positive
same,mutagenic call,"Species/Cell Type: Salmonella typhimurium, Assay Type: Forward and reverse gene mutation, host-mediated assay, Assay Code: HMA+, Evaluation Type: Evaluation A (Pre-1980)",active; positive
same,mutagenic call,"Species/Cell Type: Syrian hamster embryo (SA7/SHE) cells, Assay Type: Cell transformation, viral enhanced, Assay Code: CT7-, Evaluation Type: Evaluation A (Pre-1980)",inactive; negative
same,mutagenic call,"Species/Cell Type: Tradescantia species, Assay Type: Gene mutation, Assay Code: TRM+D, Dose Response: With dose response, Evaluation Type: Evaluation A (Pre-1980)",active; positive
O=[N+]([O-])c1cc([N+](=O)[O-])c2ccc3cccc4ccc1c2c43,mutagenic call,"Species/Cell Type: Chinese hamster ovary (CHO) cells, Assay Type: Forward gene mutation at the HPRT locus, Assay Code: CHO+*, Activation: With metabolic activation, Evaluation Type: Evaluation B (Post-1980)",active; positive
Nc1nc(/C=C/c2ccc([N+](=O)[O-])o2)cs1,mutagenic call,[6],active; positive
CCN(CC)CCNc1ccc(C(=O)O)c2sc3ccccc3c(=O)c12,mutagenic call,"Species/Cell Type: Fischer rat embryo (RLV/1706) cells, Assay Type: Cell transformation, viral enhanced, Assay Code: CTR+, Evaluation Type: Evaluation A (Pre-1980)",active; positive
O=C1OC2(c3ccccc31)c1ccc(O)c(Br)c1Oc1c2ccc(O)c1Br,mutagenic call,[7],no conclusion
O=NN1CCCC(Cl)C1 (stereo not drawn),mutagenic call,"Species/Cell Type: Drosophila melanogaster, Assay Type: Sex-linked recessive lethal gene mutation, Assay Code: SRL+, Evaluation Type: Evaluation A (Pre-1980)",active; positive
same,mutagenic call,[4],active; positive
CC(=O)C(NC(=O)C(C)C(O)C(C)NC(=O)C(NC(=O)c1nc(C(CC(N)=O)NCC(N)C(N)=O)nc(N)c1C)C(O[C@@H]1O[C@@H](CO)[C@@H](O)[C@H](O)[C@]1(C)O[C@@H]1OC(CO)[C@H](O)[C@](O)(C(N)=O)[C@H]1O)c1cnc[nH]1)C(=O)NCCC1=NC(c2nc(C(N)=O)cs2)CS1 (stereo partly drawn),mutagenic call,"Species/Cell Type: Mammalian oocytes or early embryo, Assay Type: Chromosome aberrations in vivo, Assay Code: CYO+, Evaluation Type: Evaluation A (Pre-1980)",active; positive
same,mutagenic call,"Species/Cell Type: Vicia faba, Assay Type: Chromosome aberrations, Assay Code: VIC+D, Dose Response: With dose response, Evaluation Type: Evaluation A (Pre-1980)",active; positive
O=C1CNCC(=O)N1C1CC1N1C(=O)CNCC1=O (stereo not drawn),mutagenic call,"Species/Cell Type: Chinese hamster lung (V79) cells, Assay Type: Forward gene mutation at the HPRT or ouabain locus, Assay Code: V79-, Evaluation Type: Evaluation A (Pre-1980)",inactive; negative
NCCCCNCCCN,mutagenic call,[7],no conclusion
